The text below walks through data of patent publication US8796219B2, “Target-activated cell/tissue-penetrating peptide for delivery of impermeable compounds and use thereof” (Nano Intelligent Biomedical Engineering Corporation Co. Ltd, priority 2009, dated 2014).

Where no end group is shown, it is not given here.

Assay [1] relates to normal cell line (ATCC). In words: Cell-penetrating ability in normal cell line (FACS and confocal laser scanning microscopy of FITC fluorescence). Particulars: FITC label. The assay is classed as cell-based. Here is the method: (§1) In order to examine the cell-penetrating ability of the target-activated cell/tissue-penetrating peptide prepared in Example 1, the C-terminal region of the prepared peptide was labeled with the fluorescence marker FITC, and the fluorescence-labeled peptide was inoculated into each of a normal cell line (ATCC) and a tumor cell line (CT-26, KCLB (Korea cell line bank) 80009).
(§2) 1 hour after the inoculation, the fluorescence intensities of the cell lines were measured using FACS, and the results of the measurement are shown in FIG. 2. […] In FIG. 2, “(a)” indicates the fluorescence intensity of the normal cell line, and “(b)” indicates the fluorescence intensity of the tumor cell line.
(§3) Also, whether the peptide penetrated into the cells was observed by a confocal laser scanning microscope. […] In FIG. 3, “(a)” indicates the cell penetration of the peptide in the tumor cell line group, and “(b)” indicates the cell penetration of the peptide in the normal cell line group.
(§4) The target-activated cell/tissue-penetrating peptide-anticancer protein conjugate prepared in Example 2 above was inoculated into each of a normal cell line (ATCC) and a tumor cell line (CT-26, KCLB (Korea cell line bank) 80009). 1 hour after the inoculation, the penetration of the peptide-gelonin conjugate into the cells was observed by a confocal laser scanning microscope (FIG. 4).

The test system of assay [2] is tumor cell line (CT-26). In words: Cell-penetrating ability in tumor cell line (FACS and confocal laser scanning microscopy of FITC fluorescence). The assay is classed as cell-based, mouse. As for the experimental part:
as §1, §2, §3, §4

Consider “NH2-EEEEEEEPLGLAG-VSRRRRRRGGRRRR-C-COONH2 (H-EEEEEEEPLGLAGVSRRRRRRGGRRRRC-NH2) [masking domain (EEEEEEE), MMP-cleavable spacer (PLGLAG) and LMWP as protein transduction domain]”, for which the “fluorescence intensity of the normal cells (FACS)” value in assay [1] is “the same as that before application of the penetrating peptide”.
Consider “fluorescence-labeled peptide: peptide of Example 1 with the C-terminal region labeled with the fluorescence marker FITC (H-EEEEEEEPLGLAGVSRRRRRRGGRRRRC; also: FITC label on C-terminal region)”, for which the “fluorescence intensity of the tumor cells (FACS)” value in assay [2] (CT-26, 1 hour after inoculation, FITC label) is recorded as “increase”. Further, the “penetration into the cells observed by confocal laser scanning microscope, tumor cell line” value in assay [2] (CT-26, FITC label, nuclei stained with Hoechst 33342) is recorded as “observed”. The “penetration into the cells observed by confocal laser scanning microscope, normal cell line” value in assay [1] (nuclei stained with Hoechst 33342) was “not observed”.
